pIC50: −log10 of the molar value.
How the values were obtained:
PARP7 [1] = target: T1, PARP7 (Homo sapiens, UniProt Q7Z3E1); assay: Inhibition of the compound on PARP7 protein activity (ADP-ribosylation, chemiluminescence); assay type: biochemical; conditions: Histone H1 coated plate, Biotin-Labeled NAD+, 2 h at room temperature, chemiluminescence; read-out: PARP7 activity inhibition IC50
T1 construct: purchased BPS 80527
T1 sequence (Q7Z3E1 1-657): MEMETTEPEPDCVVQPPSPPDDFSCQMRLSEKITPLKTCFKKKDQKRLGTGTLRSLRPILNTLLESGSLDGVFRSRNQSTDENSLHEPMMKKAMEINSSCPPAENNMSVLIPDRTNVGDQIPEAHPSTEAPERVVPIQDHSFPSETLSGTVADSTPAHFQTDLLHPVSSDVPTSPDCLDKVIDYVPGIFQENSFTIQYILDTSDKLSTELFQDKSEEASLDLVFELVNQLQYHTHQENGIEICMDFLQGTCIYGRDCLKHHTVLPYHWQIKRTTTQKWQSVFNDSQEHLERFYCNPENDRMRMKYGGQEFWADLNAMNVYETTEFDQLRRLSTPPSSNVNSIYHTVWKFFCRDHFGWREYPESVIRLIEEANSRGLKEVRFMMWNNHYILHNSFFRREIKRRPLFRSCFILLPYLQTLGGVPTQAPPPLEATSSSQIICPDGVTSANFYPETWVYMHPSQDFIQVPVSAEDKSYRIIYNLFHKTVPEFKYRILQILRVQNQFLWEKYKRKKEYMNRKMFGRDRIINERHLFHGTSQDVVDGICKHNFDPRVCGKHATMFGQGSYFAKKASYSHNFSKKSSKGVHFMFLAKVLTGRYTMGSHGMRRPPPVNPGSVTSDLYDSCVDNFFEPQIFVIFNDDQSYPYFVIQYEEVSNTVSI

NCI-H1373 cells = assay: Inhibition on NCI-H1373 cell proliferation (Cell-Titer-Glo); assay type: cell-based; conditions: Homo sapiens, 144 h; NCI-H1373 cells, incubation for 6 days, Cell-Titer-Glo; read-out: NCI-H1373 cell proliferation inhibition IC50
PARP7 [2] = target: T1, PARP7; assay: PARP7 TR-FRET binding inhibition (displacement of probe RBN011147); conditions: TR-FRET, Biotin-labeled probe RBN011147; read-out: PARP7 binding inhibition IC50
Procedure: The ability of the compound to substitute the probe RBN011147 (Wigle et al., 2020, Cell Chemical Biology 27, 877-887) was tested by a TR-FRET method, and IC50 was calculated to evaluate the binding ability of the compound to PARP7. […]

PARP7 [3] = target: T1, PARP7; assay: PARP7 in vitro enzyme activity inhibition (chemiluminescence assay, selectivity test); assay type: biochemical; conditions: 6.25 nM of PARP7 solution, method of test example 1; read-out: PARP7 activity inhibition IC50
Procedure: (§1) Following the method in test example 1, the IC50 value of the inhibition of each compound on PARP7 activity were detected and obtained. Reference was made to the method in test example 1, except that the 6.25 nM of PARP7 solution in the ribosylation reaction step was replaced with a 5 nM of PARP1 solution or a 5 nM of PARP2. Similar to the 6.25 nM of PARP7 solution, the 5 nM of PARP1 solution and 5 nM of PARP2 solution were also formulated and obtained by using 1× Assay buffer.

PARP2 = PARP2 (Homo sapiens, UniProt Q9UGN5); assay: PARP2 in vitro enzyme activity inhibition (chemiluminescence assay); assay type: biochemical; conditions: 5 nM of PARP2, method of test example 1; read-out: PARP2 activity inhibition IC50
Chain of PARP2 (Q9UGN5 whole entry, species assumed): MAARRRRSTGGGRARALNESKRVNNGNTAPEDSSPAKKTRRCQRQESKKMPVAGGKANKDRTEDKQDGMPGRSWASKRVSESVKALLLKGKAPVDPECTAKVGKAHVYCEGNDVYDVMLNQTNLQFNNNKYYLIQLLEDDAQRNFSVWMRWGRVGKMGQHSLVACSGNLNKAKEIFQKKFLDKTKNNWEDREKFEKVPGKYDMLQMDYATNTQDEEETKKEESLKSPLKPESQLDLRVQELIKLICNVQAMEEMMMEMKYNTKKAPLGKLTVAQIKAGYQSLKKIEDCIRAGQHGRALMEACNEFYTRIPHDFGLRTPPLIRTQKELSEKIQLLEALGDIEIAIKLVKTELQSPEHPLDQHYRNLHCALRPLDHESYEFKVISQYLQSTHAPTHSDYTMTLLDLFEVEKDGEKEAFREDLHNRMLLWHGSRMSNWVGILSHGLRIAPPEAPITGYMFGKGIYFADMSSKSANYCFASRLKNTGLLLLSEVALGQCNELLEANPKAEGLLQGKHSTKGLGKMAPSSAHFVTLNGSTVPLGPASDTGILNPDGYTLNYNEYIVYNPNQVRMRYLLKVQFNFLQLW
Procedure: as §1

PARP1 = PARP1 (Homo sapiens, UniProt P09874); assay: PARP1 in vitro enzyme activity inhibition (chemiluminescence assay); assay type: biochemical; conditions: 5 nM of PARP1 solution, method of test example 1; read-out: PARP1 activity inhibition IC50
Chain of PARP1 (P09874 whole entry, species assumed): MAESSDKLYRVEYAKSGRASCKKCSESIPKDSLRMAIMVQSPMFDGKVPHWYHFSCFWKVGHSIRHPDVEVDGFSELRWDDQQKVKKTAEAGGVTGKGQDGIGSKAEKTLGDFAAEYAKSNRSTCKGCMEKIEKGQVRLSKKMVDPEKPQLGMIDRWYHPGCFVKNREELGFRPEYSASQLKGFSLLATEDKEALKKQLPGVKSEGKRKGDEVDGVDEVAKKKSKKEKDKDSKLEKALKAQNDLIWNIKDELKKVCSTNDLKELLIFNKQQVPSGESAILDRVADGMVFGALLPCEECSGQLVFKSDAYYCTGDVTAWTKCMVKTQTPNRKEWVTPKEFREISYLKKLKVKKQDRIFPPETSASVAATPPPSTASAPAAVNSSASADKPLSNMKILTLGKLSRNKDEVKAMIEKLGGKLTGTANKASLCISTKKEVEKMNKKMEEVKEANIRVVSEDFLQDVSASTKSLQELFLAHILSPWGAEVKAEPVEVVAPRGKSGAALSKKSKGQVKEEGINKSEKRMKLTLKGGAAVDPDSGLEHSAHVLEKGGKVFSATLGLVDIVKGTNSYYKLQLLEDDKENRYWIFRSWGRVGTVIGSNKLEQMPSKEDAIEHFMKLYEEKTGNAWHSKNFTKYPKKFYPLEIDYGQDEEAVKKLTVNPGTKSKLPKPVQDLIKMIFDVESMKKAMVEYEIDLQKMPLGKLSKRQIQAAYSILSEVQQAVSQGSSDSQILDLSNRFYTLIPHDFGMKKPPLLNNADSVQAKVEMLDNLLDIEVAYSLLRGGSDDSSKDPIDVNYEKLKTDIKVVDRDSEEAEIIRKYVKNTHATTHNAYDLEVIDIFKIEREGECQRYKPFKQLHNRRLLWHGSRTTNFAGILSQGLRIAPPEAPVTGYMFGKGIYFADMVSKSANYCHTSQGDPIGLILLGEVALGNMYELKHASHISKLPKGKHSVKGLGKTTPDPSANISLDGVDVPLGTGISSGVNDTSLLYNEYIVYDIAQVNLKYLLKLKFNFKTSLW
Procedure: as §1

pIC50 (PARP7 [1]) | pIC50 (NCI-H1373 cells) | pIC50 (PARP7 [2]) | pIC50 (PARP7 [3]) | pIC50 (PARP2) | pIC50 (PARP1) | SMILES
> 8.52 | 5.52 to 6.00 | 7.52 to 8.00 | > 8.52 | 8.00 to 8.52 | 7.52 to 8.00 | O=C(NCCC[C@@H](Nc1cn[nH]c(=O)c1C(F)(F)F)C(=O)N1CC[C@H](F)C1)c1ccc(-c2ncc(C(F)(F)F)s2)cc1 [Example 241]
8.00 to 8.52 | 5.52 to 6.00 | 7.52 to 8.00 | 8.00 to 8.52 | 8.00 to 8.52 | 7.00 to 7.52 | CC1(F)CN(C(=O)[C@@H](CCCNC(=O)c2ccc(-c3ncc(C(F)(F)F)s3)cc2)Nc2cn[nH]c(=O)c2C(F)(F)F)C1 [Example 242]
> 8.52 | < 5.52 | > 8.00 | > 8.52 | 8.00 to 8.52 | 8.00 to 8.52 | N#CC1CCN(C(=O)[C@@H](CCCNC(=O)c2ccc(-c3ncc(C(F)(F)F)s3)cc2)Nc2cn[nH]c(=O)c2C(F)(F)F)CC1 [Example 243]
> 8.52 | < 5.52 | 7.00 to 7.52 | > 8.52 | 7.00 to 7.52 | 8.00 to 8.52 | O=C(NCCC[C@@H](Nc1cn[nH]c(=O)c1C(F)(F)F)C(=O)Nc1ccccn1)c1ccc(-c2ncc(C(F)(F)F)s2)cc1 [Example 244]
> 8.52 | 5.52 to 6.00 | > 8.00 | > 8.52 | 8.00 to 8.52 | 7.52 to 8.00 | COC1(C)CN(C(=O)[C@@H](CCCNC(=O)c2ccc(-c3ncc(C(F)(F)F)s3)cc2)Nc2cn[nH]c(=O)c2C(F)(F)F)C1 [Example 246]
8.00 to 8.52 | < 5.52 | 7.52 to 8.00 | 8.00 to 8.52 | 7.00 to 7.52 | 7.52 to 8.00 | CC1(C#N)CN(C(=O)[C@@H](CCCNC(=O)c2ccc(-c3ncc(C(F)(F)F)s3)cc2)Nc2cn[nH]c(=O)c2C(F)(F)F)C1 [Example 247]

The next lines start with the molecule.

SMILES | pIC50 (PARP7 [1]) | pIC50 (NCI-H1373 cells) | pIC50 (PARP7 [2]) | pIC50 (PARP7 [3]) | pIC50 (PARP2) | pIC50 (PARP1)
CCNC(=O)C(CCCNC(=O)c1ccc(-c2ncc(C(F)(F)F)s2)cc1)Nc1cn[nH]c(=O)c1C(F)(F)F (stereo not drawn) [Example 231] | > 8.52 | > 6.52 | > 8.00 | > 8.52 | 8.00 to 8.52 | 7.52 to 8.00
C[C@H]1CCN(C(=O)[C@@H](CCCNC(=O)c2ccc(-c3ncc(C(F)(F)F)s3)cc2)Nc2cn[nH]c(=O)c2C(F)(F)F)C1 [Example 232] | > 8.52 | 6.00 to 6.52 | 7.52 to 8.00 | > 8.52 | 8.00 to 8.52 | 8.00 to 8.52
CC1CN(C(=O)[C@@H](CCCNC(=O)c2ccc(-c3ncc(C(F)(F)F)s3)cc2)Nc2cn[nH]c(=O)c2C(F)(F)F)C1 [Example 233] | > 8.52 | 6.00 to 6.52 | > 8.00 | > 8.52 | > 8.52 | 8.00 to 8.52
O=C(NCCCC(Nc1cn[nH]c(=O)c1C(F)(F)F)C(=O)NC1CCCOC1)c1ccc(-c2ncc(C(F)(F)F)s2)cc1 (stereo not drawn) [Example 235] | > 8.52 | 6.00 to 6.52 | > 8.00 | > 8.52 | 8.00 to 8.52 | 8.00 to 8.52
CO[C@H]1CCN(C(=O)[C@@H](CCCNC(=O)c2ccc(-c3ncc(C(F)(F)F)s3)cc2)Nc2cn[nH]c(=O)c2C(F)(F)F)C1 [Example 237] | > 8.52 | 6.00 to 6.52 | > 8.00 | > 8.52 | 8.00 to 8.52 | 7.52 to 8.00
C[C@@H]1COCCN1C(=O)[C@@H](CCCNC(=O)c1ccc(-c2ncc(C(F)(F)F)s2)cc1)Nc1cn[nH]c(=O)c1C(F)(F)F [Example 238] | > 8.52 | 6.00 to 6.52 | > 8.00 | > 8.52 | 7.52 to 8.00 | 7.00 to 7.52
N#C[C@@H]1CCN(C(=O)[C@@H](CCCNC(=O)c2ccc(-c3ncc(C(F)(F)F)s3)cc2)Nc2cn[nH]c(=O)c2C(F)(F)F)C1 [Example 239] | > 8.52 | 6.00 to 6.52 | 7.52 to 8.00 | > 8.52 | < 7.00 | 7.52 to 8.00

— patent publication EP4800012A1, “COMPOUND ACTING AS PARP7 INHIBITOR” (Dovetree Medicines Unus, Inc., priority 2023, dated 2025)
